This is an account of results in publication PMC2837466 (Journal of chromatography. B, Analytical technologies in …, 2010).

For the assay, the target named is human serum albumin (HSA) (Homo sapiens, UniProt P02768). The assay can be described thus: high-performance affinity chromatography, frontal analysis. The class given is binding.
human serum albumin (HSA), sequence (P02768 25-609): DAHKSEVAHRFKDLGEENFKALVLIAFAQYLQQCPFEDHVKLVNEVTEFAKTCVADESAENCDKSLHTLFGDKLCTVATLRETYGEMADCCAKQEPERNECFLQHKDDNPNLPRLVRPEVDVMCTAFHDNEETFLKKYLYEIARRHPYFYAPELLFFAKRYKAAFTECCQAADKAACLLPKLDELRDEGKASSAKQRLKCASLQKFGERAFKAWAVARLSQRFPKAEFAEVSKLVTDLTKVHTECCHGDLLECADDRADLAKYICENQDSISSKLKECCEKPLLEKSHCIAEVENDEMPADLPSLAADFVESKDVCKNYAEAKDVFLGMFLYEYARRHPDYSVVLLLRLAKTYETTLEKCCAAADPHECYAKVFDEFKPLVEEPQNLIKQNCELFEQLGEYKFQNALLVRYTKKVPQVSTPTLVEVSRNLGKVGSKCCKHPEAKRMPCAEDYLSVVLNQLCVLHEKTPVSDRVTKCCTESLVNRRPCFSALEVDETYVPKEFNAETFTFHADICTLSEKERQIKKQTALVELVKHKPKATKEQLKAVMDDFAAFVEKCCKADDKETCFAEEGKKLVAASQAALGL

As for `CCN(CC)CC(=O)Nc1c(C)cccc1C` [lidocaine], the Kd (usually a measure of binding affinity in units of concentration) was 21.3 µM.
